According to patent US12583855B2, “RET selective inhibitor, preparation method therefor and use thereof” (SHOUYAO HOLDINGS (BEIJING) CO., LTD., priority 2019, dated 2026):
Substitutions are numbered along the chain they refer to.

Experiments:
[1] = biological target: T1, RET^WT (Homo sapiens, UniProt P07949); assay: In vitro enzymatic activity assay on RET^WT (HTRF); type: biochemical; conditions: GST-RET^WT (658-1114 aa) 0.5 nM, ATP 25 μM
T1 construct: GST-RET^WT (658-1114 aa, final concentration of 0.5 nM)
T1 sequence (P07949 658-1114): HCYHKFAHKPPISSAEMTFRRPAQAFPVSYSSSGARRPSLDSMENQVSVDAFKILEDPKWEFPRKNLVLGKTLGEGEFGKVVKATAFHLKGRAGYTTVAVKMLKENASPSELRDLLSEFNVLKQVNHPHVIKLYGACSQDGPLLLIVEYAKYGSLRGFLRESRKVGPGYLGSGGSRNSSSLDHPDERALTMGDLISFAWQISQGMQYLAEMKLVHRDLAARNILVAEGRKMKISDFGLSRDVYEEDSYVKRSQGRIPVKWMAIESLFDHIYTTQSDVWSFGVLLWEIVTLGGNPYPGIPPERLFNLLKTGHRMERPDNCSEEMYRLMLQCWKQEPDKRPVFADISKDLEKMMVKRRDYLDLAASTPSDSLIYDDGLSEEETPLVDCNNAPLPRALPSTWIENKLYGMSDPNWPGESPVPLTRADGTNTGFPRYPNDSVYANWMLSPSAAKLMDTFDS
Procedure, shortened: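 Reaction run 2 h at 23 °C in HEPES pH 7.5 buffer with Na3VO4, MgCl2, DTT, Tween 20 and BSA; compounds tested at 7 concentrations (5-fold serial dilution in DMSO from 0.2 mM stock). HTRF detection with TK antibody and streptavidin-XL665; IC50 from curve fitting.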

[2] = biological target: VEGFR2 (Homo sapiens, UniProt P35968); assay: In vitro enzymatic activity assay on VEGFR2 (HTRF); type: biochemical; conditions: GST-VEGFR2 0.1 nM, ATP 2.5 μM
Sequence of VEGFR2 (P35968 20-1356): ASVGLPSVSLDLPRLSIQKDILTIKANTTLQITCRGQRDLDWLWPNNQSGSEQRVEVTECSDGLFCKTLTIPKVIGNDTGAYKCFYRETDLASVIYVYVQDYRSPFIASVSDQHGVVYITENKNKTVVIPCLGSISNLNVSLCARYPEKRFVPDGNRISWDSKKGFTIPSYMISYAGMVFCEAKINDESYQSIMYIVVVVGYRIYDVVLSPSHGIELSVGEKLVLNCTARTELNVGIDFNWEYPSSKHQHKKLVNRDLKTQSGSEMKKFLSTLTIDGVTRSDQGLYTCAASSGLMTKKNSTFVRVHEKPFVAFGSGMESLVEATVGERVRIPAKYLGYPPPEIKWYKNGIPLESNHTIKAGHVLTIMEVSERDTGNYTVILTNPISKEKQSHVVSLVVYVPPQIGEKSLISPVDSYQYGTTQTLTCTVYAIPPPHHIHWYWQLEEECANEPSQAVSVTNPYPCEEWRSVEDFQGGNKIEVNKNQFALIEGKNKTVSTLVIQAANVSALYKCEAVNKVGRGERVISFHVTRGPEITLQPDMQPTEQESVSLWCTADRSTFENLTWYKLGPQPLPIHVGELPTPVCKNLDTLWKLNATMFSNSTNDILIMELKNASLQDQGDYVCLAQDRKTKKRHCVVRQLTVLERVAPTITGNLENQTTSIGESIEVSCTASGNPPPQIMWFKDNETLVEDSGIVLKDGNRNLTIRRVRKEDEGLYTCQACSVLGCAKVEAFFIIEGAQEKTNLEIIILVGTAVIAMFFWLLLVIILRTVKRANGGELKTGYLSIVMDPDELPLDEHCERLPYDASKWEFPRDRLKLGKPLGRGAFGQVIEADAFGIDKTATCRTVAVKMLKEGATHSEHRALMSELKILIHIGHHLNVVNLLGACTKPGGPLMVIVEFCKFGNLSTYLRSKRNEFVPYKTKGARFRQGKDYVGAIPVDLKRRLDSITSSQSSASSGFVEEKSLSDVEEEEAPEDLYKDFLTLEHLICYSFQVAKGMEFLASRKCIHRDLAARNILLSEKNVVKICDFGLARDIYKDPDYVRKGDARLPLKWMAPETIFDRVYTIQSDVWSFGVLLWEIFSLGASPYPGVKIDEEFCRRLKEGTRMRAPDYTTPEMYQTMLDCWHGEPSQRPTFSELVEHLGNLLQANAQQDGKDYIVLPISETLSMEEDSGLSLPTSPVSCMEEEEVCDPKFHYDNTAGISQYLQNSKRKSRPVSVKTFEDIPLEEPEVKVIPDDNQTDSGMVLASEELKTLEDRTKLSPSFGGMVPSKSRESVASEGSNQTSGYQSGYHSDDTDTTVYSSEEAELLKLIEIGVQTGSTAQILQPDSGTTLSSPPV
Procedure, shortened: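 GST-VEGFR2 (0.1 nM final) with 2.5 μM ATP and 1 μM TK peptide substrate in HEPES pH 7.5 buffer with Mg²⁺/Mn²⁺, 1.5 h at 23 °C. HTRF read-out (665/620 nm ratio) after adding TK antibody and streptavidin-XL665. IC50 from 7-point, 5-fold dilution series.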

[3] = system: TT cells; assay: TT cell proliferation activity (Cell-Titer Glo); type: cell-based; conditions: TT human thyroid carcinoma cells, 120 h
Procedure: 4. Determination of TT Cell Proliferation Activity of Compounds
TT cells, a human thyroid carcinoma cell line, were cultured in Ham's F-12K medium supplemented with 15% fetal bovine serum (FBS, purchased from Biological Industries, BI) and 1% penicillin/streptomycin double antibody (P/S, purchased from Life Technology) under conditions of 37° C. and 5% CO2. TT cells were plated in a 96-well plate (#3917 purchased from Corning) at a concentration of 5000 cells/195 μL/well the day before compound was detected. The compounds were diluted 3-fold with 100% DMSO starting from 10 mM (10 concentrations in total) after 24 h, and 2 μL of each concentration was diluted in 48 μL of Ham's F-12K medium. 5 μL of each diluted compound was added to the plated Cell suspension, the compound and cells were co-incubated in a cell incubator for 120 h (5 days), after the medium was aspirated. 25 μL of Cell-Titer Glo (G7570, purchased from Promega) reagent was added and re-incubated for 5-10 min. Fluorescence value was then read on Envision and the data were calculated using GraphPad Prism software to obtain IC50 values for inhibition of cell proliferation by the compounds.

[4] = system: KIF5B-RET/HEK293T cells; assay: Cell proliferation activity in KIF5B-RET/HEK293T cells (Cell-Titer Glo); type: cell-based; conditions: Homo sapiens, HEK-293T, 72 h, read-out: KIFSB-RETV^804M/293T (Cell)IC50
[5] = Pharmacokinetic data of compounds in male SD rats; type: in vivo; conditions: rat, po, intragastric, 5 mg/kg, suspension MC 0.5%, plasma
Procedure: 6. Pharmacokinetic Data of Compounds
Male SD rats (Beijing Vital River Laboratory Animal Technology Co., Ltd) were divided into groups. 3 in each group, received intragastric administration with the suspension of the test sample (5 mg/kg, suspensions MC 0.5%), respectively. Animals were fasted overnight prior to the experiment from 10 h before dosing to 4 h after dosing. Blood was collected 0.25, 0.5, 1, 2, 4, 6, 8, and 24 h after administration, respectively. After isoflurane anesthesia using a small animal anesthesia machine, 0.3 mL of whole blood samples was taken through the fundus venous plexus, placed in a heparin anticoagulant tube, and were centrifuged at 4° C. 4000 rpm for 5 min plasma was transferred to the centrifuge tube, and stored at −80° C. until analysis. Samples in the plasma were extracted using protein precipitation and the extracts were analyzed by LC/MS.

[6] = biological target: T2, RET^V804M (Homo sapiens, UniProt P07949, V804M); assay: In vitro enzymatic activity assay on RET^V804M (HTRF); type: biochemical; conditions: GST-RET^V804M (658-1114 aa) 0.02 nM, ATP 1.5 μM
T2 construct: GST-RET^V804M (658-1114 aa, final concentration of 0.02 nM)
T2 sequence (P07949 658-1114 V804M): T1 sequence (P07949 658-1114) with V147M

SMILES | IC50 [1] | IC50 [2] | IC50 [3] | IC50 [4] | AUC(0-inf) [5] | Cmax [5] | Tmax [5] | half-life [5] | IC50 [6]
COc1ccc(CN2C3CC2CN(c2ccc(-c4cc(N5CC(C)(O)C5)cn5ncc(C#N)c45)cn2)C3)cn1 [Example 7, 6-(3-hydroxy-3-methylazetidin-1-yl)-4-(6-(6-((6-methoxypyridin-3-yl)methyl)-3,6-diazabicyclo[3.1.1]heptan-3-yl)pyridin-3-yl)pyrazolo[1,5-a]pyridine-3-carbonitrile] | 0.601 nM | 9.67 nM | 7.41 nM | 99.1 nM | 12600 ng·h/mL | 1460 ng/mL | 2 h | 3.53 h | –
CN(C)C(=S)N1CCN(c2ccc(-c3cc(-c4cnn(C)c4)cn4ncc(C#N)c34)cn2)CC1 [Example 8, 4-(5-(3-cyano-6-(1-methyl-1Hpyrazol-4-yl)pyrazolo[1,5-a]pyridine-4-yl)pyridin-2-yl)-N,N-dimethylpiperazin-1-carbothioamide] | 0.863 nM | 9.15 nM | 14 nM | 162 nM | – | – | – | – | 0.908 nM
CSc1ccc(CN2CCN(c3ccc(-c4cc(-c5cnn(C)c5)cn5ncc(C#N)c45)cn3)CC2)nc1 [Example 9, 6-(1-methyl-1Hpyrazol-4-yl)-4(6-(4-((5-(methylthio)pyridin-2-yl)methyl)piperazin-1-yl)pyridin-3-yl)pyrazolo[1,5-a]pyridine-3-carbonitrile] | 0.565 nM | 10 nM | 37.3 nM | 371 nM | 8290 ng·h/mL | 1660 ng/mL | 2.17 h | 2.02 h | 1.22 nM
COCC1=C(C(=O)N2CCN(c3ccc(-c4cc(-c5cnn(C)c5)cn5ncc(C#N)c45)cn3)CC2)CCC1 [Example 12, 4-(6-(4-(2-(methoxymethyl)cyclopent-1-ene-1-carbonyl)piperazin-1-yl)pyridin-3-yl)-6-(1-methyl-1Hpyrazol-4-yl)pyrazolo[1,5-a]pyridine-3-carbonitrile] | 0.65 nM | 14.4 nM | 6.3 nM | 141 nM | – | – | – | – | 1.47 nM
CSc1ccc(CN2CCN(c3ccc(-c4cc(-c5cnn(C)c5)cn5ncc(C#N)c45)cn3)CC2)cc1 [Example 17, 6-(1-methyl-1Hpyrazol-4-yl)-4-(6-(4-(4-(methylthio)benzyl)piperazin-1-yl)pyridin-3-yl)pyrazolo[1,5-a]pyridine-3-carbonitrile] | – | 14.1 nM | – | 394 nM | – | – | – | – | –
Cn1cc(-c2cc(-c3ccc(N4CC5CC(C4)N5Cc4cccc(S(C)(=O)=O)c4)nc3)c3c(C#N)cnn3c2)cn1 [Example 20, 6-(1-methyl-1Hpyrazol-4-yl)-4-(6-(6-(3-(methylsulfonyl)benzyl)-3,6-diazabicyclo[3.1.1]heptan-3-yl)pyridin-3-yl)pyrazolo[1,5-a]pyridine-3-carbonitrile] | 0.092 nM | 6.44 nM | 6.58 nM | 146 nM | – | – | – | – | 0.237 nM
CSc1ccc(CN2C3CC2CN(c2ccc(-c4cc(-c5cnn(C)c5)cn5ncc(C#N)c45)cn2)C3)nc1 [Example 22, 6-(1-methyl-1Hpyrazol-4-yl)-4-(6-(6-((5-(methylthio)pyridin-2-yl)methyl)-3,6-diazabicyclo[3.1.1]heptan-3-yl)pyridin-3-yl)pyrazolo[1,5-a]pyridine-3-carbonitrile] | 0.124 nM | – | 12.9 nM | 147 nM | – | – | – | – | 0.242 nM
Cn1cc(-c2cc(-c3ccc(N4CC5CC(C4)N5Cc4ccc(S(C)(=O)=O)cc4)nc3)c3c(C#N)cnn3c2)cn1 [Example 25, 6-(1-methyl-1Hpyrazol-4-yl)-4-(6-(6-(4-(methylsulfonyl)benzyl)-3,6-diazabicyclo[3.1.1]heptan-3-yl)pyridin-3-yl)pyrazolo[1,5-a]pyridine-3-carbonitrile] | 0.148 nM | – | 5.96 nM | 146 nM | – | – | – | – | 0.236 nM
CS(=O)(=O)c1ccc(CN2C3CC2CN(c2ccc(-c4cc(-c5cnn(C(F)F)c5)cn5ncc(C#N)c45)cn2)C3)cc1 [Example 45, 6-(1-difluoromethyl-1Hpyrazol-4-yl)-4-(6-(6-(4-(methylsulfonyl)benzyl)-3,6-diazabicyclo[3.1.1]heptan-3-yl)pyridin-3-yl) pyrazolo[1,5-a] pyridine-3-carbonitrile] | 0.159 nM | 4.96 nM | 22.7 nM | – | 27500 ng·h/mL | 3560 ng/mL | 1.83 h | 3.21 h | 0.822 nM
CSc1ccc(CN2C3CC2CN(c2ccc(-c4cc(-c5cnn(C(F)F)c5)cn5ncc(C#N)c45)cn2)C3)cn1 [Example 60, 6-(1-(difluoromethyl)-1Hpyrazol-4-yl)-4-(6-(6-((6-(methylthio)pyridin-3-yl)methyl)-3,6-diazabicyclo[3.1.1]heptan-3-yl)pyridin-3-yl)pyrazolo[1,5-a]pyridine-3-carbonitrile] | 0.103 nM | 3.1 nM | 18.5 nM | 281 nM | 14700 ng·h/mL | 1140 ng/mL | 1.5 h | 7.45 h | 0.593 nM
CC1(O)CN(c2cc(-c3ccc(N4CC5CC(C4)N5Cc4cccc(S(C)(=O)=O)c4)nc3)c3c(C#N)cnn3c2)C1 [Example 65, 6-(3-hydroxy-3-methylazetidin-1-yl)-4-(6-(6-(3-(methylsulfonyl)benzyl)-3,6-diazabicyclo[3.1.1]heptan-3-yl)pyridin-3-yl)pyrazolo[1,5-a]pyridine-3-carbonitrile] | 0.67 nM | 19.4 nM | 24.1 nM | 349 nM | – | – | – | – | 1.85 nM
CSc1cc(CN2C3CC2CN(c2ccc(-c4cc(-c5cnn(C(F)F)c5)cn5ncc(C#N)c45)cn2)C3)ccn1 [Example 72, 6-(1-(difluoromethyl)-1Hpyrazol-4-yl)-4-(6(6-((2-(methylthio)pyridin-4-yl)methyl)-3,6-diazabicyclo[3.1.1]heptan-3-yl)pyridin-3-yl)pyrazolo[1,5-a]pyridine-3-carbonitrile] | 0.147 nM | 7.74 nM | 24.9 nM | 387 nM | – | – | – | – | 0.735 nM
